In assay [1] the test system is HCC1954 breast ductal carcinoma cells. Description: In vitro potency, cell viability (Cell Titer Glo 2.0), HCC1954. The note with it: Homo sapiens, HCC1954, 120 h. Format: cell-based. The method, then:
(§1) HCC1954 breast ductal carcinoma or SK-BR-3 cells (ATCC, Manassas, VA, USA) were seeded into 384-well white-walled culture plates and allowed to adhere for 2-4 hours. Cells were then treated with test articles at least in duplicate by addition of 5-fold serially diluted test articles prepared at 2× final concentration and incubated at 37° C. for 120 hours. Cell viability following treatment was determined by Cell Titer Glo 2.0 Assay (Promega, Madison, WI, USA) and normalized to non-treated controls. Dose-response relationships were analyzed using GraphPad Prism (La Jolla, CA, USA), and IC50 values were derived from non-linear regression analyses using a 4-parameter logistic equation.
(In general: In ATP-based viability assays light output follows the ATP content of the culture.)

Assay [2] relates to SK-BR-3 cells. In words: In vitro potency, cell viability (Cell Titer Glo 2.0), SK-BR-3. Format: cell-based. The settings on record: Homo sapiens, SK-BR-3, 120 h. The protocol: as §1

The structures appear in SMILES notation. Where a SMILES comes first, the peptide text is derived from it. [ ]: non-standard residue; d: D form. The star is where a group is joined. Dolaproine = CO[C@@H]([C@@H]1CCCN1)[C@@H](C)C(=O)O; Dil = CC[C@H](C)[C@H](NC)[C@@H](CC(=O)O)OC; X1 = C[C@@H](N*)[C@@H](O)c1ccccc1; NMeV = CN[C@H](C(=O)O)C(C)C

For `CC[C@H](C)[C@@H]([C@@H](CC(=O)N1CCC[C@H]1[C@H](OC)[C@@H](C)C(=O)N[C@H](C)[C@@H](O)c1ccccc1)OC)N(C)C(=O)[C@@H](NC(=O)[C@@H](NC)C(C)C)C(C)C` [MMAE, (S)-N-((3R,4S,5S)-1-((S)-2-((1R,2R)-3-(((1S,2R)-1-hydroxy-1-phenylpropan-2-yl)amino)-1-methoxy-2-methyl-3-oxopropyl)pyrrolidin-1-yl)-3-methoxy-5-methyl-1-oxoheptan-4-yl)-N,3-dimethyl-2-((S)-3-methyl-2-(methylamino)butanamido)butanamide] (H-[NMeV]V[Dil][Dolaproine]-X1), the IC50 in assay [1] was determined as 0.21 nM; in assay [2] it was 0.127 nM.

Usually IC50 stands for the concentration needed to halve the response being measured. The low end stands for greater potency in that assay, the high end for weaker potency in that assay.

Source of the values: patent publication US20250064955A1, “DRUG CONJUGATES AND METHODS OF PREPARING AND USING THE SAME” (priority 2021, published 2025).
